# Measurements taken from patent US8492391B2, “Substituted 6-(2-hydroxybenzylamino)purine derivatives, their use as medicaments and compositions containing these derivatives” (Univerzita Palackeho V Olomouci, priority 2009, dated 2013).
# Where two headings read alike, the source gives them in different places.
# Tests used:
# β-adrenergic receptors = assay: Modulation of the activity of β-adrenergic receptors (isoproterenol-induced cAMP synthesis in C6 glioma); type: cell-based; settings: rat C6 glioma, cAMP synthesis induced by 5 μM (−) isoproterenol, 30 min; for EFFECT (modulation of the activity of β-adrenergic receptors) / EFFECT: fold activation (modulation of the activity of β-adrenergic receptors): simultaneous addition
# Procedure: Mechanism of action of novel compounds is presented on FIG. 2. […] Incubation was at 37° C. in a humidified atmosphere. Assays were performed in the logaritmic growth phase at a density of 2.5×10^5 cells/cm^2. Intracellular cAMP synthesis was induced by addition of 5 μM (−) isoproterenol. After 30 min incubation at 37° C. the medium was removed and the cellular amount of cAMP determined using the cAMP-enzyme immunoassay kit of Amersham. The I50 is determined from a dose-response curve in duplicate. The effect of several novel substituted 6-(2-hydroxybenzylamino)purine derivatives was measured after simultaneous addition with isoproterenol.
# As P2Y1-like and A2 purinergic receptors, negatively and positively coupled to adenylate cyclase respectively, are present on rat C6 glioma. It has to be determined if the modulation of the synthesis of cAMP is due to inhibition of the activation of β-adrenergic receptors by isoproterenol are due to activation of purinergic receptors.
# p53 = assay: p53-dependent transcription, β-galactosidase reporter in Arn8 cells; type: cell-based, human; design: key to p53 (effect): induction of p53 protein: ++: very strong; +: weak; −: no effect; settings: for p53 (effect): induction of p53 protein: Arn8 cells stable transfected with a β-galactosidase reporter gene; for p53 (peak concentration in μM): Arn8 cells, concentration inducing maximum of β-galactosidase activity
# Description: Protein p53, accumulated in nuclei upon treatment by the compounds, then leads to trans-activation of natural cell cycle inhibitor p21^WAF1, further blocking the cell cycle. […] This allows qualitative as well as quantitative measurement of CDK inhibitors-induced p53 transcriptional activity via β-galactosidase assay. Then, the effect will be verified in treated cells by immunoblotting of proteins expressed under the control of p53. β-galactosidase activity of human melanoma cell line Arn8 was determined as described. […] Alternatively, β-galactosidase activity was quantified by measuring fluorescence of methylumbelliferyl-β-D-galactopyranoside cleavage product. Cell lines established from the human breast carcinoma (MCF-7) and the human melanoma (Arn8) cell lines were cultured in Dubecco's Modified Eagle Medium (DMEM) supplemented with 10% foetal bovine serum.
# Effects of prepared compounds on activation of p53 protein were analysed in human melanoma cell line Arn8. […] The total β-galactosidase activity in Arn8 cells was quantified using a fluorimetric assay.
# [1] = system: MCF7 (human breast adenocarcinoma); assay: Calcein AM cytotoxicity assay, MCF7; type: cell-based; settings: MCF7, read-out: Cytotoxic activity IC50 (μM) MCF7
# Description: (§1) Cytotoxicity of the compounds is the major property determining their anticancer effect in vivo. One of the parameters used, as the basis for cytotoxicity assays, is the metabolic activity of viable cells. For example, a microtiter assay, which uses the Calcein AM, is now widely used to quantitate cell proliferation and cytotoxicity. For instance, this assay is used in drug screening programs and in chemosensitivity testing. Because only metabolically active cells cleave Calcein AM, these assays detect viable cells exclusively. The quantity of cleaved Calcein AM corresponds to the number of vital cells in the culture. We have been using the following cell lines: MCF7 (human breast adenocarcinoma), K562 (human chronic myelogenous leukaemia), HOS (human osteogenic sarcoma), HeLa (human cervical carcinoma), HL 60 (human promyelocytic leukaemia), G 361 (human malignant melanoma), CEM (human lymphoblastoid leukaemia). All cell lines were grown in DMEM medium (Gibco BRL) supplemented with 10% (v/v) fetal bovine serum and L-glutamine and maintained at 37° C. in a humidified atmosphere with 5% CO2. For cytotoxicity assays, 10^4 cells were seeded into each well of 96 well plate, allowed to stabilize for at least 2 h and then tested compounds were added at various concentrations ranging from 100 to 0.1 μM in triplicates. Three days after drug addition Calcein AM solution (Molecular Probes) was added and let to enter the cells for 1 hour. Fluorescence of viable cells was quantified using Fluoroskan Ascent (Microsystems).
# [2] = system: HOS (human osteogenic sarcoma); assay: Calcein AM cytotoxicity assay, HOS; type: cell-based; settings: read-out: Cytotoxic activity IC50 (μM) HOS
# Description: as §1
# [3] = system: K562 (human chronic myelogenous leukaemia); assay: Calcein AM cytotoxicity assay, K562; type: cell-based; settings: read-out: Cytotoxic activity IC50 (μM) K562
# Description: as §1
# CDK9/cyclin T = biological target: T1, CDK9/cyclin T (Homo sapiens, UniProt P50750); assay: CDK9/cyclin T kinase inhibition assay; type: biochemical; settings: kinase inhibitory activity, 15 μM ATP, (YSPTSPS)3 peptide substrate
# T1 construct: made in house; host or cells: Sf9 insect cells, baculovirus co-infection
# Procedure: (§2) Selected compounds were tested for CDK1/cyclin B, CDK2/cyclin E, CDK5/p25, CDK7/cyclin H and CDK9/cyclin T inhibitory activity to determine the basic relationships between their structure and the inhibitory activity. Cdk/cyclin complexes were expressed in Sf9 cells co-infected with appropriate baculoviral construct. The cells were harvested 70 hours post infection in lysis buffer (50 mM Tris pH 7.4, 150 mM NaCl, 5 mM EDTA, 20 mM NaF, 1% Tween 20, protease inhibitors) for 30 min on ice and the soluble fraction was recovered by centrifugation at 14.000 g for […]. The protein extract was stored at −80° C. until use. The final point test system for kinase activity measurement was used to carry out experiments on the kinetics under linear conditions. […] ATP and tested compound in a final volume of 20 μl, all in reaction buffer: 50 mM Hepes pH 7.4, 10 mM MgCl2, 5 mM EGTA, 10 mM 2-glycerolphosphate, 1 mM NaF, 1 mM DTT and protease inhibitors. After 30 min, the incubations were stopped by adding 5% H3PO4 and then the proteins were separated by phosphocellulose binding. The measurement of kinase inhibition employed the digital imaging analyzer BAS 1800. The kinase activity was expressed as a percentage of maximum activity and the IC50 value was determined by graphic analysis. The kinase activity is expressed as a percentage of maximum activity (FIG. 1).
# CDK2/cyclin E = biological target: T2, CDK2/cyclin E (Homo sapiens, UniProt P24941); assay: CDK2/cyclin E kinase inhibition assay; type: biochemical; settings: kinase inhibitory activity, 15 μM ATP, histone substrate
# T2 construct: made in house; host or cells: Sf9 insect cells, baculovirus co-infection
# Procedure: as §2
# T1 sequence (P50750 whole entry, species assumed): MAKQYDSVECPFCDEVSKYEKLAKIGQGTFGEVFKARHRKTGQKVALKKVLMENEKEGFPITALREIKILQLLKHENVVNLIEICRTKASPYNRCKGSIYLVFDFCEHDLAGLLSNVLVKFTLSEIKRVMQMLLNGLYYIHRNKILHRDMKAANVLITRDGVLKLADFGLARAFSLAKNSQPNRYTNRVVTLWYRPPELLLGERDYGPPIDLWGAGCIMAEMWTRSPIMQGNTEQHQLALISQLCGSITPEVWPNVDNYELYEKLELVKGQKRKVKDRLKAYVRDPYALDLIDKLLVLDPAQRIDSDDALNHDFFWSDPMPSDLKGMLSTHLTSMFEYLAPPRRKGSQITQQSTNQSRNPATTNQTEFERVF
# T1 sequence (O60563 whole entry partner, species assumed): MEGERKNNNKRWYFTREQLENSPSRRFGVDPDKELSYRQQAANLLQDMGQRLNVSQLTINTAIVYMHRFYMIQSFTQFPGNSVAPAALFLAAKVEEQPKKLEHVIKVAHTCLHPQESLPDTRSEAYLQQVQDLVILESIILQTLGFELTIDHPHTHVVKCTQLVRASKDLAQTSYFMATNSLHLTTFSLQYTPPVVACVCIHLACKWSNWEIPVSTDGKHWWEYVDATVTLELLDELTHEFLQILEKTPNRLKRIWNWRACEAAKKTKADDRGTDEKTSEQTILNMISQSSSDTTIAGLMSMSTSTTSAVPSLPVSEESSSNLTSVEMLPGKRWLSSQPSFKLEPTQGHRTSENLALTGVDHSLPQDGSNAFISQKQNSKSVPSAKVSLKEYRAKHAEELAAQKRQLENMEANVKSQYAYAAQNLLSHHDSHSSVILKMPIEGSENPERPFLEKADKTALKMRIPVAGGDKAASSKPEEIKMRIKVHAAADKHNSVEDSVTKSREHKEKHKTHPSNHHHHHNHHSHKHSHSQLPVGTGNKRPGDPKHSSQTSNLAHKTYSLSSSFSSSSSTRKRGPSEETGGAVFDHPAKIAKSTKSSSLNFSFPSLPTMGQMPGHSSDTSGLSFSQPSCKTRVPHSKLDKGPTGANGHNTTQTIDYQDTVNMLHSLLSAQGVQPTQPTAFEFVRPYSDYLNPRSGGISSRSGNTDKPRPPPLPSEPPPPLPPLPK
Structure (SMILES),IC50 (β-adrenergic receptors),EFFECT (modulation of the activity of β-adrenergic receptors) (β-adrenergic receptors),p53 (effect): induction of p53 protein (p53),p53 (peak concentration in μM) (p53),IC50 ([1]; Homo sapiens),IC50 ([2]; Homo sapiens),IC50 ([3]; Homo sapiens),EFFECT: fold activation (modulation of the activity of β-adrenergic receptors) (β-adrenergic receptors),IC50 (CDK9/cyclin T),IC50 (CDK2/cyclin E),IC50 [1],IC50 [2],IC50 [3],IC50 (μM) (modulation of the activity of β-adrenergic receptors) (β-adrenergic receptors)
"COc1cccc(CNc2nc(NC3CCC(N)CC3)nc3c2ncn3C(C)C)c1O (mixture of isomers) [Compound 126, (E/Z)—N^2-(4-aminocyclohexyl)-N^6-(2-hydroxy-3-methoxybenzyl)-9-isopropyl-9H-purin-2,6-diamine]",4 ± 1 µM,inhibition,++,11.0 µM,,,,,,,,,,
CCC(CO)Nc1nc(NCc2cc(Cl)ccc2O)c2ncn(C(C)C)c2n1 (stereo not drawn) [Compound 79],,,++,8.0 µM,3.5 µM,5.3 µM,11.9 µM,1.5-fold activation,0.04 µM,0.07 µM,,,,
CC(C)C(CO)Nc1nc(NCc2cc(Cl)ccc2O)c2ncn(C(C)C)c2n1 (stereo not drawn) [Compound 80],,,,,,,,1.8-fold activation,0.05 µM,0.06 µM,,,,
CC(C)n1cnc2c(NCc3cc(Cl)ccc3O)nc(NCC(C)(C)O)nc21 [Compound 81],,,,,,,,1.7-fold activation,0.02 µM,0.03 µM,,,,
CC(C)n1cnc2c(NCc3cc(F)ccc3O)nc(NC3CCCCC3N)nc21 (stereo not drawn) [Compound 86],8 ± 2 µM,inhibition,,,1.8 µM,3.2 µM,7.6 µM,,0.02 µM,0.04 µM,,,,
CCC(CO)Nc1nc(NCc2cc(F)ccc2O)c2ncn(C(C)C)c2n1 (stereo not drawn) [Compound 89],,,++,6.0 µM,3.2 µM,5.3 µM,14.7 µM,1.9-fold activation,0.02 µM,0.05 µM,,,,
Cc1cccc(CNc2nc(NC3CCCCC3N)nc3c2ncn3C(C)C)c1O (stereo not drawn) [Compound 105],12 ± 4 µM,inhibition,,,,,,,,,,,,
Cc1ccc(O)c(CNc2nc(NC3CCC(N)CC3)nc3c2ncn3C(C)C)c1 (stereo not drawn) [Compound 106],7 ± 2 µM,inhibition,,,,,,,,,,,,
CCC(CO)Nc1nc(NCc2cc(C)ccc2O)c2ncn(C(C)C)c2n1 (stereo not drawn) [Compound 107],,,++,6.0 µM,6.6 µM,18 µM,24.9 µM,,,0.02 µM,,,,
CCC(CO)Nc1nc(NCc2ccc(O)cc2O)c2ncn(C(C)C)c2n1 (stereo not drawn) [Compound 119],,,+,12.0 µM,4.3 µM,8.1 µM,13 µM,1.6-fold activation,0.05 µM,0.08 µM,,,,
CCC(CO)Nc1nc(NCc2cc(O)cc(O)c2)c2ncn(C(C)C)c2n1 (stereo not drawn) [Compound 123],,,+,11.0 µM,,,,1.7-fold activation,,,3.2 µM,3.7 µM,5.3 µM,
CC(C)C(CO)Nc1nc(NCc2cc(O)ccc2O)c2ncn(C(C)C)c2n1 (stereo not drawn) [Compound 124],,,,,,,,2.1-fold activation,,,,,,
COc1cccc(CNc2nc(NC3CCCCC3N)nc3c2ncn3C(C)C)c1O (stereo not drawn) [Compound 125],2 µM,inhibition,++,10.0 µM,3.2 µM,,10.9 µM,,,0.02 µM,,,,
Cn1cnc2c(NCc3ccccc3)nc(NCCO)nc21 [OC],,inactive,,,,,,,,,133 µM,,163 µM,inactive
